These results are taken from ChEMBL document CHEMBL5465560, “Selectivity Literature for EUbOPEN Chemogenomic Library” (2024).

The target in test [1] is T1, Cytoplasmic tyrosine-protein kinase BMX (Homo sapiens) (UniProt P51813).
T1 sequence (whole entry): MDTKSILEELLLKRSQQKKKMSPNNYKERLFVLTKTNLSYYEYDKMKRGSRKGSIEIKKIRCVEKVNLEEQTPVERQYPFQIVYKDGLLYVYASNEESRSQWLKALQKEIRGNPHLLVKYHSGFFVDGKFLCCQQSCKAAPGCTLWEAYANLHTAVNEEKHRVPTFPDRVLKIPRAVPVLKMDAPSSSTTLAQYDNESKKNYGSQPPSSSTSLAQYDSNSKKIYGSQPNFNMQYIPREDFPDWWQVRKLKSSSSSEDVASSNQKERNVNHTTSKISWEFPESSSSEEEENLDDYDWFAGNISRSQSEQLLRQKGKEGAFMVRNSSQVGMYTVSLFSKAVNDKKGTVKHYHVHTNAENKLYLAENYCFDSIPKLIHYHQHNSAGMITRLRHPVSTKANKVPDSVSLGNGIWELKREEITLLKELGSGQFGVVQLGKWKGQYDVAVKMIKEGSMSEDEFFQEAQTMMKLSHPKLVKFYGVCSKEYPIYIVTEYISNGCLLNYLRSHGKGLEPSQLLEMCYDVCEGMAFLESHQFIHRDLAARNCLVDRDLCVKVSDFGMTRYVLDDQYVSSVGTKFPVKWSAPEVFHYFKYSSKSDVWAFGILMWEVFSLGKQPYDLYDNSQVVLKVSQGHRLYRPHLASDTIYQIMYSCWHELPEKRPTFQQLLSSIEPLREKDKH
The experiment in a line: Selectivity interaction (KinomeScan (DiscoverX)) EUB0000666a BMX. The following applies: at 10 µM.

Test [2] relates to Tyrosine-protein kinase ABL1 (Homo sapiens), P00519 [Q252H]. The test can be described thus: Selectivity interaction (KinomeScan (DiscoverX)) EUB0000607a ABL1. To be noted: at 10 µM.
Test [3] deals with T2, Serine/threonine-protein kinase D1 (Homo sapiens) (UniProt Q15139).
T2 sequence (whole entry): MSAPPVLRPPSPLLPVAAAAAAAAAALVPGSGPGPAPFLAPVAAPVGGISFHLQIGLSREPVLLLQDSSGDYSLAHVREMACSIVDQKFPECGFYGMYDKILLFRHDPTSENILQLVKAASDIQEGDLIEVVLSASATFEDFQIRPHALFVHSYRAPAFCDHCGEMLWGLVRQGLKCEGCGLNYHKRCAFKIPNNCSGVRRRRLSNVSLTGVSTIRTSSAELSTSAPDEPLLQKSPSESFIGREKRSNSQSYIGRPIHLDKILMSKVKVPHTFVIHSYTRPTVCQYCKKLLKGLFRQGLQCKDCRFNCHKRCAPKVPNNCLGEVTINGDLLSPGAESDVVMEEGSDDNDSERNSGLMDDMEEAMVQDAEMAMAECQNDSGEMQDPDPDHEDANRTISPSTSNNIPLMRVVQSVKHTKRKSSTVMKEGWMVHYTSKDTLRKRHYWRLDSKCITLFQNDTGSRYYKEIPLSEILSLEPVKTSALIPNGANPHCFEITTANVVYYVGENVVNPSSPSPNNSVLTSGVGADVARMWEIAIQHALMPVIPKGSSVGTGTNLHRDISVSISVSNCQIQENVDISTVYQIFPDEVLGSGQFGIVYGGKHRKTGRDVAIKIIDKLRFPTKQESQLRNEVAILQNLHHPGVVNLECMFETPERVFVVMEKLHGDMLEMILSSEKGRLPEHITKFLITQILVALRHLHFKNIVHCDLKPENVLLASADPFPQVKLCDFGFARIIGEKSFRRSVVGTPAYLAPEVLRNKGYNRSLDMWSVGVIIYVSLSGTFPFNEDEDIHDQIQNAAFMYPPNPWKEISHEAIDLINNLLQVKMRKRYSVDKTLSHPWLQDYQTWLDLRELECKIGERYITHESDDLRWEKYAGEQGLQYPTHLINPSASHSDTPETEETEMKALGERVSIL
The test can be described thus: Selectivity interaction (KinomeScan (DiscoverX)) EUB0000607a PRKD1. The following applies: at 10 µM.

In test [4] the target is Cyclin-dependent kinase 2 (Homo sapiens, UniProt P24941). The experiment in a line: Selectivity interaction (ActivX KiNativ screen (kinase selectivity in THP-1 cell lysates)) EUB0000639a CDK2. To be noted: lysate, at 5 µM. The test is classed as subcellular.
In test [5] the target is T3, cGMP-dependent protein kinase 2 (Homo sapiens) (UniProt Q13237).
T3 sequence (whole entry): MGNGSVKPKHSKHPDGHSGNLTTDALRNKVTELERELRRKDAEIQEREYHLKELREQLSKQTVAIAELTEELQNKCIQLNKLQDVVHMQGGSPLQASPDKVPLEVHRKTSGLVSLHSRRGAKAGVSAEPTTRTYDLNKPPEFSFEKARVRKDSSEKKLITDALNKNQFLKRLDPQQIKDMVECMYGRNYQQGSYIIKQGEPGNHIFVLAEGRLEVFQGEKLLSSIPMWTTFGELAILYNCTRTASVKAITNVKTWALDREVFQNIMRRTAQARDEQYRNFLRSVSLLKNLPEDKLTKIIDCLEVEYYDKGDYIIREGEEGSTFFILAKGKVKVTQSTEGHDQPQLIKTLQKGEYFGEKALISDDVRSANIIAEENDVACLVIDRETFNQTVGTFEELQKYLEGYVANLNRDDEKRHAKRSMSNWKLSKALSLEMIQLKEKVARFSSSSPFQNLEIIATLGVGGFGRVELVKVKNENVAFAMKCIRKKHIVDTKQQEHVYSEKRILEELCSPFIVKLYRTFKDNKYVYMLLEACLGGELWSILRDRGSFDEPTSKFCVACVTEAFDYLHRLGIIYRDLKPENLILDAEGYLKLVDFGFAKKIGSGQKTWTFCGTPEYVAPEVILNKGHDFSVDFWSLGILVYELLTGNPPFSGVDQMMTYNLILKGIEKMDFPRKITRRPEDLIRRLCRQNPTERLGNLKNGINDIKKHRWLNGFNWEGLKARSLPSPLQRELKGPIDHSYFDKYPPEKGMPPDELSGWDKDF
The test can be described thus: Selectivity interaction (KinomeScan (DiscoverX)) EUB0000655a PRKG2. The following applies: at 10 µM.

Test [6] addresses Mitogen-activated protein kinase kinase kinase 9 (Homo sapiens) (UniProt P80192). The experiment in a line: Selectivity interaction (KinomeScan (DiscoverX)) EUB0000655a MAP3K9. To be noted: at 10 µM.
Test [7] deals with Angiopoietin-1 receptor (Homo sapiens) (UniProt Q02763). The test can be described thus: Selectivity interaction (KinomeScan (DiscoverX)) EUB0000092b TEK. The following applies: at 10 µM.
Test [8] addresses Cyclin-dependent kinase 9 (Homo sapiens, UniProt P50750). The experiment in a line: Selectivity interaction (Z-Lyte kinase biochemical assay, conc. ATP = Km(app), Thermo Fisher Scientific) EUB0001558a CDK9.

pIC50: −log10 of the molar value.

Sequence of Cyclin-dependent kinase 9 (P50750 whole entry): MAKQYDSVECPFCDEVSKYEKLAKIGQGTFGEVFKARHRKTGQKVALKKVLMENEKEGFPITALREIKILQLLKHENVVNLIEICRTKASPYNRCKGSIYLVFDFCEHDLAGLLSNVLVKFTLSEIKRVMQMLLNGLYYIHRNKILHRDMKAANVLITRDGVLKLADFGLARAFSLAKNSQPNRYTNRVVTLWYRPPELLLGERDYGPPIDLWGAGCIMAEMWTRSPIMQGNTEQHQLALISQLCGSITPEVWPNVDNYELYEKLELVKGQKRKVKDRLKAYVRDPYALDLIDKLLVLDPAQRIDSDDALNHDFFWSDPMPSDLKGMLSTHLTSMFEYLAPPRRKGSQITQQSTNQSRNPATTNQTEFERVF
Sequence of Mitogen-activated protein kinase kinase kinase 9 (Homo sapiens) (P80192 whole entry, looked up): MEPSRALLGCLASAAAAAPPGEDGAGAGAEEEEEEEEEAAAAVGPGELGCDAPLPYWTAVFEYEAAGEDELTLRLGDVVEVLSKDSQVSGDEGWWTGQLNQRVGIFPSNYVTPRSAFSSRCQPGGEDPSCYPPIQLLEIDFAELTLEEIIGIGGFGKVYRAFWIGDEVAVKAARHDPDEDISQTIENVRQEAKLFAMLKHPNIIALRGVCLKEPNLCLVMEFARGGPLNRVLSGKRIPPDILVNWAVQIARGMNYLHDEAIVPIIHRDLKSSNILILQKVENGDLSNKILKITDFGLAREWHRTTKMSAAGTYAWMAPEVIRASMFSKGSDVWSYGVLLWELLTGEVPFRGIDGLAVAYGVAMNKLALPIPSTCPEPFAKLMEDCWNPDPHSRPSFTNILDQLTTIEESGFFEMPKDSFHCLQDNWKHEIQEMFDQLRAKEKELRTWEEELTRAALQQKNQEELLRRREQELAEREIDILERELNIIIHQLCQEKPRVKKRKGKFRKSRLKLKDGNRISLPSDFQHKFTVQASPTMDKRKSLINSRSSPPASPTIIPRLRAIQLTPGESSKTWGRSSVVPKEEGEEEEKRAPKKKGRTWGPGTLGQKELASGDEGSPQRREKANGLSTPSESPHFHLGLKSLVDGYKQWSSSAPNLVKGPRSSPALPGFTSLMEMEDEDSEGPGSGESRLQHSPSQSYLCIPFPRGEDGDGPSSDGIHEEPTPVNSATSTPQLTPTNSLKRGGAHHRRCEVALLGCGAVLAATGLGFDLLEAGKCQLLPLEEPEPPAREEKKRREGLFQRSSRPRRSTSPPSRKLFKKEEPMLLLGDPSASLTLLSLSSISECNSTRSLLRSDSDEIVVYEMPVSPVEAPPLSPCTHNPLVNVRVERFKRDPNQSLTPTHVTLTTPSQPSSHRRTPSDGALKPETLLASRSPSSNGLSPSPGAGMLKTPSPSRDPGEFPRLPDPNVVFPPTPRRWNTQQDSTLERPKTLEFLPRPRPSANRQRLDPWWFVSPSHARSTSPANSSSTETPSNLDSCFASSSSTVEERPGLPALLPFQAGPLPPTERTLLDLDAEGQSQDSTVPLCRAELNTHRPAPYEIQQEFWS
Sequence of Angiopoietin-1 receptor (Homo sapiens) (Q02763 whole entry): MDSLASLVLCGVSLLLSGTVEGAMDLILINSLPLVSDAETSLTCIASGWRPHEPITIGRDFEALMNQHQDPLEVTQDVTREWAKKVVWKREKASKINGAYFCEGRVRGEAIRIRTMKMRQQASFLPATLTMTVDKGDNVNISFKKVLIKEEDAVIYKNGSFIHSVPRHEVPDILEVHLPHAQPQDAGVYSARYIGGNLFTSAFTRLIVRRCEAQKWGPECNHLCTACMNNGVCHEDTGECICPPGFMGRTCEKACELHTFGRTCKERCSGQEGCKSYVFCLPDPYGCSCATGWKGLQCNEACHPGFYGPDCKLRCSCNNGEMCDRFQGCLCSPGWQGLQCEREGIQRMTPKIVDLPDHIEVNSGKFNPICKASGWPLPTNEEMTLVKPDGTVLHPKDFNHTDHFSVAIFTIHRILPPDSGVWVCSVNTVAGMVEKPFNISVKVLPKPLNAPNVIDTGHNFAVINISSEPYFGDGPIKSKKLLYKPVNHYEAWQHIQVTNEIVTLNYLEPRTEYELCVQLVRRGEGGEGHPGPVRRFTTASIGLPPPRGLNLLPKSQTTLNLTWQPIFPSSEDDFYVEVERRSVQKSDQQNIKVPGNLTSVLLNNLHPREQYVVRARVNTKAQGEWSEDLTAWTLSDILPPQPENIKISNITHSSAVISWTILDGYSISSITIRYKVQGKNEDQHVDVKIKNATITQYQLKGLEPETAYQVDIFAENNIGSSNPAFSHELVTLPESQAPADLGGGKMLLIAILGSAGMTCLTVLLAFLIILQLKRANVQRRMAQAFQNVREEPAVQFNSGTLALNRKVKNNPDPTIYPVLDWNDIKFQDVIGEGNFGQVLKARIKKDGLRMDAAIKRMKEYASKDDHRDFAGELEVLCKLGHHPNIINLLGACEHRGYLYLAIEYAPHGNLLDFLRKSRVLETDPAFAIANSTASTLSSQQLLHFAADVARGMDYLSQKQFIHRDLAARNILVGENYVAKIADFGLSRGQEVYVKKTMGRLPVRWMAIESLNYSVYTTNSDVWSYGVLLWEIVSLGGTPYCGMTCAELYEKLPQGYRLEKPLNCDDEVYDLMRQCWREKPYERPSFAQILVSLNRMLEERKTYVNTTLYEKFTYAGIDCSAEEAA

Turning to `O=C(NOC[C@H](O)CO)c1ccc(F)c(F)c1Nc1ccc(I)cc1F`, the % of control in test [1] was determined as 92%.

For the molecule `CNC(=O)Nc1ccc(-c2nc(N3CC4CCC(C3)O4)c3cnn(C4CCC5(CC4)OCCO5)c3n2)cc1`, the % of control in test [2] and in test [3] was 100% in each case.

`CC[C@@H]1[C@H](F)C(=O)N[C@@H]1COc1nccc2cc(C(N)=O)c(OC)cc12` [ZIMLOVISERTIB]: in test [4], the % of inhibition was 3%.

For the molecule `CN(C)CCOc1ccc(-c2nc(-c3ccncc3)c(-c3ccc4c(c3)CC/C4=N\O)[nH]2)cc1`, the % of control in test [5] came to 29%; in test [6], 100%.

`CCC(=O)N1CCN(c2ccc(-n3c(=O)ccc4cnc5ccc(-c6cnc7ccccc7c6)cc5c43)cc2C(F)(F)F)CC1`: the % of control in test [7] is 19%.

In the case of `CC(C)(O)[C@H](F)CN1Cc2cc(NC(=O)c3cnn4cccnc34)c(N3CCOCC3)cc2C1=O`, the pIC50 (in general, the IC50 on a negative log10 scale, so that one unit is a factor of ten) in test [8] was 6.02.
